Assay results reported in article PMC6151660 (Molecules : A Journal of Synthetic Chemistry and Natural …, 2017).
In brackets after ≈: the same amount, converted by molar mass. Read-outs that look alike come from different tables or passages of the source.

Assays:
[1] = system: Mycobacterium tuberculosis H37Rv; experiment: microbe, parasite or virus in culture; assay type: cell-based; details: for activity at 1 µM / activity at 50 µM / activity at 100 µM: 120 h
M. tuberculosis = details: cited from earlier work
[2] = system: M. tuberculosis H37RvMA pMSP12:GFP; experiment: microbe, parasite or virus in culture; assay type: cell-based; details: Mycobacterium tuberculosis
SH-SY5Y cells = experiment: MPP+-induced cytotoxicity in SH-SY5Y cells (neuroprotection); details: 1000 μM MPP+ for 48 h
[3] = 1 µM compound, day 5, read-out: % M. tuberculosis Growth, Day 5
[4] = 50 µM compound, day 5, read-out: % M. tuberculosis Growth, Day 5
[5] = 100 µM compound, day 5, read-out: % M. tuberculosis Growth, Day 5
[6] = read-out: % M. tuberculosis Growth, Day 5

SMILES	activity at 1 µM [1, 3] [%]	activity at 50 µM [1, 4] [%]	activity at 100 µM [1, 5] [%]	also measured
Cc1cc(=O)oc2cc(OCc3ccc(Br)cc3)ccc12 [CM2]	90	40.9	33.2	
O=c1ccc2ccc(OCc3ccccc3)cc2o1 [CM16]				activity at 1 µM [1, 6]: 97.5%; activity at 50 µM [1, 6]: 72.7%; activity at 100 µM [1, 6]: 50.7%
COc1ccc2cc(-n3cc(COc4nc(-c5ccccn5)sc4C(N)=O)nn3)c(=O)oc2c1 [Compound 3]				MIC (M. tuberculosis): 6.5 µM (≈ 3.1 µg/mL)
O=c1cc(C(F)(F)F)c2ccc(OCc3ccc(Br)cc3)cc2o1 [CM5]	107	65	56.1	
Cc1c(Cl)c(=O)oc2cc(OCc3ccccc3)ccc12 [CM18]	97.3	87.9	75.5	
O=c1ccc2ccc(OCCN3CCC(Cc4ccccc4)CC3)cc2o1 [CM6]	98.2	52.7	15.4	
O=c1ccc2ccc(OCc3ccc(Br)cc3)cc2o1 [CM1]	96.3	79.8	63.6	
Cc1cc(=O)oc2cc(OCCN3CCC(Cc4ccccc4)CC3)ccc12 [CM7]	95.1	29.5	8.18	
CO[C@H]1/C=C/O[C@@]2(C)Oc3c(C)c(O)c4c(O)c(c(/C=N/N5CCN(C)CC5)c(O)c4c3C2=O)NC(=O)/C(C)=C\C=C\[C@H](C)[C@H](O)[C@@H](C)[C@@H](O)[C@@H](C)[C@H](OC(C)=O)[C@@H]1C [RIF, rifampicin, reference compound]				inhibition at 6 µM ([1]; read-out: inhibition of bacterial growth): 100%; MIC [2]: 0.0274 µM (≈ 0.0225 µg/mL)
Cc1cc(=O)oc2cc(OCc3ccccc3)ccc12 [CM17]				activity at 1 µM [1, 6]: 97.6%; activity at 50 µM [1, 6]: 28.6%; activity at 100 µM [1, 6]: 19.8%
C[n+]1ccc(-c2ccccc2)cc1 [MPP^+, 1-methyl-4-phenyl pyridinium, reference compound]				cell viability after MPP+ without test compound (SH-SY5Y cells): 51.42 ± 3.18%
